From patent US20260151327A1, “COSMETIC COMPOSITION FOR SKIN PROTECTION CONTAINING SCUTELLARIA BAICALENSIS EXTRACT AS ACTIVE INGREDIENT” (EVERBIO CO., LTD., priority 2022, published 2026)

How the values were obtained:
Type in all cases: cell-based
[1] = Cytotoxicity (CC50) in adipose-derived stem cells, 3 days exposure; details: human, adipose-derived stem cells (ASCs, ATCC PCS-500-011), benzo[a]pyrene, ASCs exposed for 3 days; read-out: CC50 (50% cytotoxicity concentration)
Experimental: (§1) PCS-500-011™ cells (Thermo-Fisher Scientific, USA) were purchased as adipose-derived stem cells (ASCs) used in the experiment, from American Type Culture Collection (ATCC), and subcultured for 3 passages in the MesenPRO RS™ medium and MesenPRO RS™ growth supplement medium (Thermo-Fisher scientific, USA) until the live cells reached 80% to 90% confluency.
(§2) Specifically, the cell stock vial was thawed in a 37° C. water bath and suspended in a medium with an equal volume of the cell stock vial, and then the suspension was transferred to a tube and centrifuged (2,000 rpm, 2 min, 4° C.), followed by removal of the supernatant. The phosphate buffered saline (PBS) was added to the cell pellets remaining after the removal of the supernatant, and then the above procedures were repeated three times. Thereafter, the resultant product was placed in a medium where the cell pellets were to be grown, followed by gentle pipetting up and down, thereby preparing a cell suspension. The cell suspension was dispensed into a flask or dish containing an appropriate amount of medium. The cells were subcultured when the cells reached 70% to 80% confluency on the bottom.
(§3) PBS, media, and trypsin-EDTA were warmed at 37° C. for 30 minutes before use. The supernatant medium was removed by suction, and PBS was dispensed. […]

[2] = tested on: adipose-derived stem cells (ASCs); test: as above; details: benzo[a]pyrene, ASCs exposed for 3 days; read-out: CC50 (50% cytotoxicity concentration)
Experimental: as §1, §2, §3

[3] = tested on: adipose-derived stem cells (ASCs); test: Annexin-V-PI staining and flow cytometry: protection of ASCs against benzo[a]pyrene toxicity; details: human, 50 μM/mL
Experimental: The adipose-derived stem cell (ASC) protective effect of the Scutellaria baicalensis extract against the cell toxicity of benzo[a]pyrene was analyzed as below.
The adipose-derived stem cells cultured by the method in Example 1-1 were divided into i) a group treated with 50 μM/mL benzo[a]pyrene (BP50), ii) a group treated with 50 μM/mL benzo[a]pyrene and 200 μL/mL Scutellaria baicalensis extract (SBE200+BP50), and iii) a group treated with 50 μM/mL benzo[a]pyrene and 400 μL/mL Scutellaria baicalensis extract (SBE400+BP50). To observe cell apoptosis, the cells were stained using Annexin-V-PI dye kit (Invitrogen, USA). Since Annexin-V binds to phosphatidylserine (PS), which was exposed on the outer cell membrane during early apoptosis, early apoptosis can be identified using Annexin-V. Meanwhile, propidium iodide (PI), which binds to the nucleus, stains the nucleus through holes formed in the cell membrane in a state of late apoptosis or necrosis, thereby allowing the identification of late apoptotic or dead cells. […] For result analysis, the cellular viability was measured using a flow cytometer (BD FACSCalibur) and FlowJo 10.6.1 (BD Bioscience), and the results are shown in FIG. 2.

[4] = tested on: AMP-activated protein kinase (AMPK); test: Lipolysis promoting effect in ASCs, PE-anti-AMPK staining, flow cytometry and AMPK synthesis level; details: benzo[a]pyrene alone (BP50)
Experimental: (§4) AMP-activated protein kinase (AMPK) and hormone sensitive lipase (HSL), most common lipolytic enzymes, were applied to adipose-derived stem cells (ASCs), and the lipids obtained by degradation through AMPK were stained with PE-anti-AMPK (R&D system, USA), and the lipids obtained by degradation through HSL were stained with FITC-anti-HSL (R&D system, USA) for 24 hours. The lipids were washed with PBS, and then analyzed using a flow cytometer (FACSCalibur) and FlowJo v10.6.1 (BD Bioscience, USA), and the results are shown in FIG. 3A.
(§5) The synthesis levels of AMPK and HSL were analyzed and plotted in FIG. 3B.

[5] = tested on: hormone sensitive lipase (HSL); test: Lipolysis promoting effect in ASCs, FITC-anti-HSL staining, flow cytometry and HSL synthesis level; details: benzo[a]pyrene alone (BP50)
Experimental: as §4, §5

[6] = tested on: CCAAT enhancer binding protein alpha (CEBP-α); test: mRNA expression level of CEBP-α in ASCs (RT-PCR); details: 50 μM/mL benzo[a]pyrene (BP50) vs control (Con)
Experimental: The influence of benzo[a]pyrene and the Scutellaria baicalensis extract on the mRNA expression level of CCAAT enhancer binding protein alpha (CEBP-α), one of the lipolysis promoting genes, was investigated by the method as below.
The adipose-derived stem cells were divided into i) a control group with no treatment (Con), ii) a group treated with 50 μM/mL benzo[a]pyrene (BP50), iii) a group treated with 50 μM/mL benzo[a]pyrene and 200 μL/mL Scutellaria baicalensis extract (SBE200+BP50), and iv) a group treated with 50 μM/mL benzo[a]pyrene and 400 μL/mL Scutellaria baicalensis extract (SBE400+BP50), and the total RNA of each cell group was extracted using […] (GeneAll, Seoul, Korea). RNA was used to synthesize cDNA under the conditions of 1 minute at 95° C. and 35 seconds at 72° C. by using Maxime RT PreMix (iNtRON, Seungnam, Korea). The synthesized cDNA was amplified using the primers shown in Table 1 under the conditions of 15 seconds at 95° C., 30 seconds at 59° C., and 1 minute at 72° C. The amount of cDNA amplification was analyzed using iBright (FL1000, Thermo Fisher Scientific, Waltham, MA, USA) and iBright Analysis software 3.1.3 (Thermo Fisher Scientific, Waltham, MA, MA, USA), and the results are shown in FIG. 5.

Q: For c1ccc2c(c1)cc1ccc3cccc4ccc2c1c34 [benzo[a]pyrene, Benzo[a]pyrene], which CC50 at 3 days [1] is on record?
A: Its CC50 at 3 days is 25 µM.

Q: And the CC50 [2]?
A: The CC50 was 50 µM.

Q: And the cellular viability [3]?
A: The cellular viability was 48.1%.

Q: And the “early apoptotic cell proportion” value [3]?
A: The value was 29.6%.

Q: What about the “late apoptotic cell proportion” value [3] of the same molecule?
A: The value was 51.8%.

Q: What about the “proportion of cells undergoing lipolysis by AMPK” value [4] of the same molecule?
A: The value was 18.72%.

Q: And the “proportion of cells undergoing lipolysis by HSL” value [5]?
A: The value was 14.92%.

Q: And the “mRNA expression level of CEBP-α, fold higher than control group” value [6]?
A: Its value is 4.73 fold.
